Patent publication US8431593B2, “Heteroaryl amide derivatives” (H. Lundbeck A/S, priority 2006, dated 2013)

Target: T1, P2X7 receptor (Homo sapiens, UniProt Q99572)
T1 construct: host or cells: SH-SY5Y
T1 sequence (Q99572 1-595): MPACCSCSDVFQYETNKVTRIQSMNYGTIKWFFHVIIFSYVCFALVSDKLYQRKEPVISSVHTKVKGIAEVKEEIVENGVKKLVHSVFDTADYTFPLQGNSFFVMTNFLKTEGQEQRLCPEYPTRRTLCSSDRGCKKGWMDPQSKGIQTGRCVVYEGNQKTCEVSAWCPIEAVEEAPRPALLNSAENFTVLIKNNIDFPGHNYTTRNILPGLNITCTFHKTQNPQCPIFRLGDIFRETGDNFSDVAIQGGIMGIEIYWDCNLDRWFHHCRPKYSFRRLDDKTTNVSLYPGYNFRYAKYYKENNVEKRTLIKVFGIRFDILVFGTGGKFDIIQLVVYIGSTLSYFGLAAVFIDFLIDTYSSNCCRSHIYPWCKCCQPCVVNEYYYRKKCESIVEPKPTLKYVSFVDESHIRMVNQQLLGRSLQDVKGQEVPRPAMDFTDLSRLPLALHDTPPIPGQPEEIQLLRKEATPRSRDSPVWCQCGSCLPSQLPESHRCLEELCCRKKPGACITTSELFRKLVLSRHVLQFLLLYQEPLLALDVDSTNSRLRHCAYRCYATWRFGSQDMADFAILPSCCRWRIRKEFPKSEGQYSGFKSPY
Assay: P2X7 calcium mobilization assay, high throughput, antagonist activity (Example 4A)
Format: cell-based
Settings: 50% decrease in the fluorescence response of cells exposed to 80 μM of 2′(3′)-O-(4-benzoyl-benzoyl)adenosine 5′-triphosphate; Example 4A; read-out: IC50
Summary of the method: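 Antagonism was measured as calcium fluorescence (FLIPR Tetra) in cells seeded one day earlier at 100,000/well, loaded with dye for 1 h and exposed to compound for 1 h at room temperature before agonist. Peak RFU, minus the no-agonist background, was referenced to the mean of the agonist wells.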

IC50, < 2000 nM:
COCCN(C(=O)c1cn2c(C(=O)NCC34CC5CC(CC(C5)C3)C4)cccc2n1)C1CCNCC1(C)C (stereo not shown) [Compound 623, 5-N-(adamantan-1-ylmethyl)-2-N-(3,3-dimethylpiperidin-4-yl)-2-N-(2-methoxyethyl)imidazo [1,2-a]pyridine-2,5-dicarboxamide]
NC1CCN(C(=O)c2cn3c(C(=O)NCC45CC6CC(CC(C6)C4)C5)cccc3n2)C1 (stereo not shown) [Compound 625, N-(adamantan-1-ylmethyl)-2-[(3-aminopyrrolidin-1-yl)carbonyl] imidazo[1,2-a]pyridine-5-carboxamide]
NC1CCN(C(=O)c2cn3c(C(=O)NCC45CC6CC(CC(C6)C4)C5)cccc3n2)CC1 [Compound 626, N-(adamantan-1-ylmethyl)-2-[(4-aminopiperidin-1-yl)carbonyl]imidazo[1,2-a]pyridine-5-carboxamide]
NC1CCCN(C(=O)c2cn3c(C(=O)NCC45CC6CC(CC(C6)C4)C5)cccc3n2)C1 (stereo not shown) [Compound 627, N-(adamantan-1-ylmethyl)-2-[(3-aminopiperidin-1-yl)carbonyl]imidazo[1,2-a]pyridine-5-carboxamide]
NC[C@@H]1CCCN1C(=O)c1cn2c(C(=O)NCC34CC5CC(CC(C5)C3)C4)cccc2n1 [Compound 628, N-(adamantan-1-ylmethyl)-2-{[(2S)-2-(aminomethyl)pyrrolidin-1-yl]carbonyl}imidazo[1,2-a]pyridine-5-carboxamide]
N[C@H]1CCN(C(=O)c2cn3c(C(=O)NCC45CC6CC(CC(C6)C4)C5)cccc3n2)C1 [Compound 629, N-(adamantan-1-ylmethyl)-2-{[(3S)-3-aminopyrrolidin-1-yl]carbonyl}imidazo[1,2-a]pyridine-5-carboxamide]
NCC1CCN(C(=O)c2cn3c(C(=O)NCC45CC6CC(CC(C6)C4)C5)cccc3n2)CC1 [Compound 630, N-(adamantan-1-ylmethyl)-2-{[4-(aminomethyl)piperidin-1-yl]carbonyl}imidazo[1,2-a]pyridine-5-carboxamide]
NCC1CCCN(C(=O)c2cn3c(C(=O)NCC45CC6CC(CC(C6)C4)C5)cccc3n2)C1 (stereo not shown) [Compound 631, N-(adamantan-1-ylmethyl)-2-{[3-(aminomethyl)piperidin-1-yl]carbonyl} imidazo[1,2-a]pyridine-5-carboxamide]
NCC1CCCCN1C(=O)c1cn2c(C(=O)NCC34CC5CC(CC(C5)C3)C4)cccc2n1 (stereo not shown) [Compound 632, N-(adamantan-1-ylmethyl)-2-{[2-(aminomethyl)piperidin-1-yl]carbonyl}imidazo[1,2-a]pyridine-5-carboxamide]
NC[C@H]1CCCN1C(=O)c1cn2c(C(=O)NCC34CC5CC(CC(C5)C3)C4)cccc2n1 [Compound 633, N-(adamantan-1-ylmethyl)-2-{[(2R)-2-(aminomethyl)pyrrolidin-1-yl]carbonyl}imidazo[1,2-a]pyridine-5-carboxamide]
NCC1CN(C(=O)c2cn3c(C(=O)NCC45CC6CC(CC(C6)C4)C5)cccc3n2)C1 [Compound 634, N-(adamantan-1-ylmethyl)-2-{[3-(aminomethyl)azetidin-1-yl]carbonyl}imidazo[1,2-a]pyridine-5-carboxamide]
NC1CN(C(=O)c2cn3c(C(=O)NCC45CC6CC(CC(C6)C4)C5)cccc3n2)C1 [Compound 635, N-(adamantan-1-ylmethyl)-2-[(3-aminoazetidin-1-yl)carbonyl]imidazo[1,2-a]pyridine-5-carboxamide]
O=C(NC1CCNCC1)c1cn2c(C(=O)NCC34CC5CC(CC(C5)C3)C4)cccc2n1 [Compound 637, 5-N-(adamantan-1-ylmethyl)-2-N-piperidin-4-ylimidazo[1,2-a]pyridine-2,5-dicarboxamide]
O=C(NCC1CCCN1)c1cn2c(C(=O)NCC34CC5CC(CC(C5)C3)C4)cccc2n1 (stereo not shown) [Compound 639, 5-N-(adamantan-1-ylmethyl)-2-N-(pyrrolidin-2-ylmethyl)imidazo[1,2-a]pyridine-2,5-dicarboxamide]
NC1CC2CCC(C1)N2C(=O)c1cn2c(C(=O)NCC34CC5CC(CC(C5)C3)C4)cccc2n1 (stereo not shown) [Compound 640, N-(adamantan-1-ylmethyl)-2-[(3-amino-8-azabicyclo[3.2.1]oct-8-yl)carbonyl]imidazo[1,2-a]pyridine-5-carboxamide]
CCN1CCCC1CNC(=O)c1cn2c(C(=O)NCC34CC5CC(CC(C5)C3)C4)cccc2n1 (stereo not shown) [Compound 643, 5-N-(adamantan-1-ylmethyl)-2-N-[(1-ethylpyrrolidin-2-yl)methyl]imidazo[1,2-a]pyridine-2,5-dicarboxamide]
CN(C)CC(C)(C)CNC(=O)c1cn2c(C(=O)NCC34CC5CC(CC(C5)C3)C4)cccc2n1 [Compound 644, 5-N-(adamantan-1-ylmethyl)-2-N-[3-(dimethylamino)-2,2-dimethylpropyl] imidazo[1,2-a] pyridine-2,5-dicarboxamide]
O=C(NCCCN1CCCC1)c1cn2c(C(=O)NCC34CC5CC(CC(C5)C3)C4)cccc2n1 [Compound 645, 5-N-(adamantan-1-ylmethyl)-2-N-(3-pyrrolidin-1-ylpropyl)imidazo[1,2-a]pyridine-2,5-dicarboxamide]
O=C(NCCN1CCCC1)c1cn2c(C(=O)NCC34CC5CC(CC(C5)C3)C4)cccc2n1 [Compound 646, 5-N-(adamantan-1-ylmethyl)-2-N-(2-pyrrolidin-1-ylethyl)imidazo[1,2-a]pyridine-2,5-dicarboxamide]
CN(C)CCCNC(=O)c1cn2c(C(=O)NCC34CC5CC(CC(C5)C3)C4)cccc2n1 [Compound 647, 5-N-(adamantan-1-ylmethyl)-2-N-[3-(dimethylamino)propyl]imidazo [1,2-a]pyridine-2,5-dicarboxamide]
O=C(NCCN1CCOCC1)c1cn2c(C(=O)NCC34CC5CC(CC(C5)C3)C4)cccc2n1 [Compound 648, 5-N-(adamantan-1-ylmethyl)-2-N-(2-morpholin-4-ylethyl)imidazo[1,2-a]pyridine-2,5-dicarboxamide]
CN1CCCC1CCNC(=O)c1cn2c(C(=O)NCC34CC5CC(CC(C5)C3)C4)cccc2n1 (stereo not shown) [Compound 649, 5-N-(adamantan-1-ylmethyl)-2-N-[2-(1-methylpyrrolidin-2-yl)ethyl]imidazo[1,2-a]pyridine-2,5-dicarboxamide]
O=C(NCCN1CCCCC1)c1cn2c(C(=O)NCC34CC5CC(CC(C5)C3)C4)cccc2n1 [Compound 650, 5-N-(adamantan-1-ylmethyl)-2-N-(2-piperidin-1-ylethyl)imidazo[1,2-a]pyridine-2,5-dicarboxamide]
CCN(CC)CCNC(=O)c1cn2c(C(=O)NCC34CC5CC(CC(C5)C3)C4)cccc2n1 [Compound 651, 5-N-(adamantan-1-ylmethyl)-2-N-[2-(diethylamino)ethyl]imidazo [1,2-a]pyridine-2,5-dicarboxamide]
CC(C)N(CCNC(=O)c1cn2c(C(=O)NCC34CC5CC(CC(C5)C3)C4)cccc2n1)C(C)C [Compound 652, 5-N-(adamantan-1-ylmethyl)-2-N-[2-(diisopropylamino)ethyl]imidazo [1,2-a] pyridine-2,5-dicarboxamide]
CC(CN(C)C)NC(=O)c1cn2c(C(=O)NCC34CC5CC(CC(C5)C3)C4)cccc2n1 (stereo not drawn) [Compound 653, 5-N-(adamantan-1-ylmethyl)-2-N-[2-(dimethylamino)-l-methylethyl] imidazo[1,2-a]pyridine-2,5-dicarboxamide]
O=C(NCCCN1CCOCC1)c1cn2c(C(=O)NCC34CC5CC(CC(C5)C3)C4)cccc2n1 [Compound 654, 5-N-(adamantan-1-ylmethyl)-2-N-(3-morpholin-4-ylpropyl)imidazo [1,2-a]pyridine-2,5-dicarboxamide]
O=C(NCc1cccnc1)c1cn2c(C(=O)NCC34CC5CC(CC(C5)C3)C4)cccc2n1 [Compound 655, 5-N-(adamantan-1-ylmethyl)-2-N-(pyridin-3-ylmethyl) imidazo[1,2-a]pyridine-2,5-dicarboxamide]
Cc1cnc(CNC(=O)c2cn3c(C(=O)NCC45CC6CC(CC(C6)C4)C5)cccc3n2)cn1 [Compound 656, 5-N-(adamantan-1-ylmethyl)-2-N-[(5-methylpyrazin-2-yl)methyl]imidazo[1,2-a]pyridine-2,5-dicarboxamide]
CCN(CC)CCCNC(=O)c1cn2c(C(=O)NCC34CC5CC(CC(C5)C3)C4)cccc2n1 [Compound 658, 5-N-(adamantan-1-ylmethyl)-2-N-[3-(diethylamino)propyl] imidazo[1,2-a] pyridine-2,5-dicarboxamide]
CN1CCC(NC(=O)c2cn3c(C(=O)NCC45CC6CC(CC(C6)C4)C5)cccc3n2)CC1 [Compound 659, 5-N-(adamantan-1-ylmethyl)-2-N-(1-methylpiperidin-4-yl)imidazo[1,2-a]pyridine-2,5-dicarboxamide]
